“Also recorded” adds a separate entry of the source. Where two headings read alike, the source gives them in different places.
Legend:
[1] = molecular target: T1, wild-type GCase (Homo sapiens (Human), UniProt P04062); assay: GCase enzyme activity assay (4MU-β-Glc, no taurocholate); type: biochemical
Protocol: In previous studies, high concentrations of taurocholate (4-10 mM) were used to improve the signal in GCase enzyme activity assays^16,27,28. […] Here we describe our modifications of the substituents on the quinazoline ring.
4-Methylumbelliferyl β-D-glucopyranoside (4MU-β-Glc), 4-methylumbelliferyl α-D-glucopyranoside,4-methylumbelliferyl α-D-galactopyranoside, and buffer components were purchased from Sigma-Aldrich (St. Louis, Mo.). The recombinant wild-type GCase enzyme velaglucerase alfa (Vpriv®, Shire Human Genetic Therapies, Inc.), acid α-glucosidase enzyme alglucosidase alfa (Lumizyme®, Genzyme Corporation), α-galactosidase A enzyme agalsidase beta (Fabrazyme®, Genzyme Corporation) were used in activity assays. […] A solution of 1 M sodium hydroxide and 1 M glycine (pH 10) was used as the stop solution for all three enzyme activity assays.
The compounds in DMSO solution (0.5 μL/well) were transferred to a black 96-well plate (the final titration started from 100 μM, a 12 or 24-point 2-fold dilution series). […] After 5 min of incubation at room temperature, the enzyme reaction was initiated by the addition of blue substrate (4MU-13-Glc) (33 μL/well). The final concentration of the blue substrate was 1.5 mM. The blue substrate reaction was terminated by the addition of 33 μL/well stop solution (1 M NaOH and 1 M glycine mixture, pH 10) after 30 min of incubation at 37° C. […] The selected compounds were further assayed under pH 5.0 and pH 7.0 to evaluate their selectivity under various pH conditions.

[2] = molecular target: acid α-glucosidase (GAA) (Homo sapiens (Human), UniProt P10253); assay: Enzyme selectivity assay, acid α-glucosidase; type: biochemical; conditions: up to 100 μM
From the text: (§1) Louis, Mo.). The recombinant wild-type GCase enzyme velaglucerase alfa ([…] Human Genetic Therapies, Inc.), acid α-glucosidase enzyme alglucosidase alfa (Lumizyme®, Genzyme Corporation), α-galactosidase A enzyme agalsidase beta (Fabrazyme®, Genzyme Corporation) were used in activity assays. […] The acid α-glucosidase and α-galactosidase A enzyme activity assay methods were similar to the GCase enzyme activity assay above with slight modifications.

[3] = molecular target: T1, wild-type GCase; assay: Fluorescence thermal shift analysis; type: binding; conditions: pH 5.0, in words
From the text: Compounds shown to act as pharmacological chaperones for GCase (or other lysosomal enzymes) also stabilize the enzyme against thermal denaturation. A fluorescent thermal shift assay was developed to evaluate the binding affinity of ligands with protein^30. […] The maximum thermal shift of these compounds corresponded to their inhibitory activity at pH 5.0.
A robotic pipeline in the High Throughput Analysis Laboratory (HTAL) was used for protein ligand screening by fluorescence thermal shift (FTS) analysis. The pipeline used a Mosquito robot (TTP Labtech) for protein dispensing and an Echo 550 (Labcyte) to add compounds. Thermal scanning coupled with fluorescence detection was performed on a real-time PCR machine CFX384 (Bio-Rad Laboratories). The assay was run in 384-well PCR plates, using 10 μL citric acid/K2HPO4 buffer (50 mM citric acid, 150 mM K2HPO4, pH 5.0) per well. The assay concentration for protein was 1 μM and that for Sypro Orange (Invitrogen) was 5×. Protein was premixed with Sypro Orange and dispensed to a plate first, and compounds were added. Final concentrations of compounds ranged from 0.5 to 200 μM. Then the plate was sealed with an optical seal, shaken, and centrifuged. The thermal scan was from 10 to 95° C. with a temperature ramp rate of 1.5° C./min. The fluorescence was recorded every 10 sec. Data analysis and report generation were performed using the in-house software excelFTS.

[4] = molecular target: α-galactosidase A (GLA) (Homo sapiens (Human), UniProt P06280); assay: Enzyme selectivity assay, α-galactosidase A; type: biochemical; conditions: up to 100 μM
α-galactosidase A (GLA), sequence (P06280 32-429): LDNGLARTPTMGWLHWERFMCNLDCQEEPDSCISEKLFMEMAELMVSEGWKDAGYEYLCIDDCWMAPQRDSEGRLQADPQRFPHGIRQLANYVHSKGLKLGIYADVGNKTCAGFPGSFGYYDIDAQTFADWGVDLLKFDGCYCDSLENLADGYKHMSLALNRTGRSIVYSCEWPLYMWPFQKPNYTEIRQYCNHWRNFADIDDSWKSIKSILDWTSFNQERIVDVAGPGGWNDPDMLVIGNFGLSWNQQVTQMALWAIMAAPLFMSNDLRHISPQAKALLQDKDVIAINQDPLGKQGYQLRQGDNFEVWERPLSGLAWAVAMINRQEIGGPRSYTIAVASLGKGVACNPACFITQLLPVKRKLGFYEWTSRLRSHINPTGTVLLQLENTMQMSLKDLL
From the text: as §1

[5] = molecular target: Glucocerebrosidase (Homo sapiens (Human), UniProt P04062); assay: Glucocerebrosidase activity assay with blue substrate (4MU-Glc); type: biochemical; conditions: for IC50: marked (inh), inhibitor, read-out: IC50 or AC50 (inh)
Glucocerebrosidase, sequence (P04062 40-536): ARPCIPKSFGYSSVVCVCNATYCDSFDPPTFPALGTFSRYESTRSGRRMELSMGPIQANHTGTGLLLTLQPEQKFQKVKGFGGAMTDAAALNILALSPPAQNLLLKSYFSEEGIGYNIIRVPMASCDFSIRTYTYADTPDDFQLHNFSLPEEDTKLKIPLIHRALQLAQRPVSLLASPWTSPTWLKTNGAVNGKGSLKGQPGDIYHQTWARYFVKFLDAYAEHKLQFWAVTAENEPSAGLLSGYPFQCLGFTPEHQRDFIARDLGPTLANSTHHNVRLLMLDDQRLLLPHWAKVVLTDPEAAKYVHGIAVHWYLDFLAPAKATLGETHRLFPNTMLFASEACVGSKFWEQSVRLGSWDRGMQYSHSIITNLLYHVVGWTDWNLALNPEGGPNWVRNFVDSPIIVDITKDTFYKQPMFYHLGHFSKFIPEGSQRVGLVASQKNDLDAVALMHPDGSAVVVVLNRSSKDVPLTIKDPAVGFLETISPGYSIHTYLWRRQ
Protocol: The compounds in DMSO solution 0.5 μL/well were transferred to a black 96-well plate. The final titration was 24 nM to 50 μM, 12 concentrations, 2 times dilution. […] After 5 min of incubation at room temperature, the enzyme reaction was initiated by the addition of 33 μL/well blue substrate. Final concentrations of the blue substrate (4MU-Glc) was 1.5 mM. The blue substrate reaction was terminated by the addition of 33 μL/well stop solution (1 M NaOH and 1 M glycine mixture, pH 10) after 30 min of incubation at 37° C. The fluorescence was then measured in the Biotek Synergy H1 multi-mode plate reader with Ex=365 nm and Em=440 nm.
Additional compounds were prepared and tested according to the procedures provided in the examples above.
Additional substituted quinazoline compounds were prepared and tested according to the procedures provided in the examples above.

[6] = Table 2, pH 5.9, mean ± SD, read-out: IC50
[7] = Table 5, pH 5.9, mean ± SD, read-out: IC50
[8] = Table 1, pH 5.9, mean ± SD, read-out: IC50
[9] = Table 3, pH 5.9, mean ± SD, read-out: IC50
[10] = Table 4, pH 5.9, mean ± SD, read-out: IC50

T1 sequence (P04062 40-536): as above

c1cncc(-c2nc(NCCC3CCCCC3)c3ccccc3n2)c1 [Compound 7i]
IC50 [1, 6]: 857 ± 33 nM

c1coc(-c2nc(NC3Cc4ccccc4C3)c3ccccc3n2)c1 [Compound 11h, N-(2,3-dihydro-1H-inden-2-yl)-2-(furan-2-yl)quinazolin-4-amine]
IC50 [1, 7]: 21.1 ± 2.4 nM

FC1(F)CCC(Nc2nc(-c3cccnc3)nc3ccccc23)CC1 [Compound 6f]
IC50 [1, 8]: 234 ± 17 nM

CN1CCC(Nc2nc(-c3cccnc3)nc3ccccc23)CC1 [Compound 6i]
IC50 ([1]; Table 1, pH 5.9, mean ± SD): Inactive

Cc1ccncc1-c1nc(NC2Cc3ccccc3C2)c2ccccc2n1 [Compound 11a, N-(2,3-dihydro-1H-inden-2-yl)-2-(4-methylpyridin-3-yl)quinazolin-4-amine]
IC50 [1, 7]: 122 ± 12 nM

c1cncc(-c2nc(NC3CCc4ccccc4C3)c3ccccc3n2)c1 (single isomer, unassigned) [Compound 9a]
activity of acid α-glucosidase on compound treatment [2]: not significantly changed | stabilization of GCase (melting point change) [3]: stabilize wild-type GCase in a dose-dependent manner; also recorded: increased the GCase melting point in a dose-dependent manner | decrease of inhibitory activity at pH 5.0 compared to pH 5.9 [1]: 3 fold | activity of α-galactosidase A on compound treatment [4]: not significantly changed

c1cncc(-c2nc(NCC3CCCCC3)c3ccccc3n2)c1 [Compound 7h]
IC50 [1, 6]: 405 ± 40 nM

c1cncc(-c2nc(NC34CC5CC(CC(C5)C3)C4)c3ccccc3n2)c1 [Compound 7f]
IC50 [1, 6]: 926 ± 80 nM

c1ccc(CCNc2nc(-c3cccnc3)nc3ccccc23)nc1 [Compound 8f]
IC50 [1, 9]: 1400 ± 120 nM

CC1CCC(Nc2nc(-c3cccnc3)nc3ccccc23)CC1 (single isomer, unassigned) [Compound 6c]
IC50 [1, 8]: 20 ± 2 nM | IC50 ([1]; read-out: IC50): 20 nM

CC1(C)CCC(Nc2nc(-c3cccnc3)nc3ccccc23)CC1 [Compound 6e]
IC50 [1, 8]: 431 ± 42 nM

c1ccc(CN2CCC(Nc3nc(-c4cccnc4)nc4ccccc34)CC2)cc1 [Compound 6k]
IC50 [1, 8]: 36100 ± 8720 nM

c1cncc(-c2nc(NC3CCCC3)c3ccccc3n2)c1 [Compound 7c]
IC50 [1, 6]: 720 ± 50 nM

CC1CCC(Nc2nc(-c3cccnc3)nc3ccccc23)CC1 (single isomer, unassigned) [Compound 6a]
IC50 [1, 8]: 56 ± 5 nM

c1ccc(CCNc2nc(-c3cccnc3)nc3ccccc23)cc1 [Compound 8c]
IC50 [1, 9]: 97 ± 9 nM

c1ccc2c(c1)CC(Nc1nc(-c3ccncc3)nc3ccccc13)C2 [Compound 11e, N-(2,3-dihydro-1H-inden-2-yl)-2-(pyridin-4-yl)quinazolin-4-amine]
IC50 [1, 7]: 168 ± 18 nM

c1ccc(Nc2nc(-c3cccnc3)nc3ccccc23)cc1 [Compound 8a]
stabilization of GCase (melting point change) [3]: did not change the melting points significantly | GCase inhibitory activity in words [1]: lost activity | IC50 ([1]; Table 3, pH 5.9, mean ± SD): inactive

c1cncc(-c2nc(NC3CCCc4ccccc43)c3ccccc3n2)c1 (stereo not drawn) [Compound 9d]
GCase inhibitory activity in words [1]: low micromolar range | IC50 [1, 10]: 872 ± 71 nM

c1cncc(-c2nc(NC3Cc4ccccc4C3)c3ccccc3n2)c1 [Compound 9c]
IC50 [1, 10]: 8.3 ± 1 nM | IC50 ([1]; pH 5.0, mean ± SD, read-out: IC50 pH 5.0): 25.9 ± 3.9 nM | IC50 ([1]; pH 7.0, mean ± SD, read-out: IC50 pH 7.0): 12.7 ± 1.4 nM

CC(C)N1CCC(Nc2nc(-c3cccnc3)nc3ccccc23)CC1 [Compound 6j]
IC50 [1, 8]: 33200 ± 9710 nM

c1ccc(CCCNc2nc(-c3cccnc3)nc3ccccc23)cc1 [Compound 8d]
IC50 [1, 9]: 1530 ± 220 nM

c1ccc(CNc2nc(-c3cccnc3)nc3ccccc23)cc1 [Compound 8b]
IC50 [1, 9]: 5770 ± 820 nM

c1cncc(-c2nc(NC3CC3)c3ccccc3n2)c1 [Compound 7e]
IC50 [1, 6]: 28100 ± 3210 nM

c1cncc(-c2nc(NC3CCCCCC3)c3ccccc3n2)c1 [Compound 7b]
IC50 [1, 6]: 42 ± 3 nM

c1cncc(-c2nc(NC3CC4CCC3C4)c3ccccc3n2)c1 (stereo not drawn) [Compound 7g]
IC50 [1, 6]: 282 ± 43 nM

COC1CCC(Nc2nc(-c3cccnc3)nc3ccccc23)CC1 (stereo not drawn) [Compound 6d]
IC50 [1, 8]: 251 ± 18 nM

CN(C)C1CCC(Nc2nc(-c3cccnc3)nc3ccccc23)CC1 (stereo not drawn) [Compound 6g]
IC50 ([1]; Table 1, pH 5.9, mean ± SD): Inactive

c1cncc(-c2nc(NC3CCc4ccccc43)c3ccccc3n2)c1 (stereo not drawn) [Compound 9e]
GCase inhibitory activity in words [1]: low micromolar range | IC50 [1, 10]: 821 ± 73 nM

Cc1cncc(-c2nc(NC3Cc4ccccc4C3)c3ccccc3n2)c1 [Compound 11b, N-(2,3-dihydro-1H-inden-2-yl)-2-(5-methylpyridin-3-yl)quinazolin-4-amine]
IC50 [1, 7]: 12.5 ± 1.7 nM

c1ccc(CCCCNc2nc(-c3cccnc3)nc3ccccc23)cc1 [Compound 8e]
IC50 [1, 9]: 1280 ± 130 nM

c1cncc(-c2nc(NC3CCCOC3)c3ccccc3n2)c1 (stereo not drawn) [Compound 6h]
IC50 [1, 8]: 891 ± 23 nM

Cc1ccc(-c2nc(NC3Cc4ccccc4C3)c3ccccc3n2)cn1 [Compound 11c, N-(2,3-dihydro-1H-inden-2-yl)-2-(6-methylpyridin-3-yl)quinazolin-4-amine]
IC50 [1, 7]: 29.4 ± 3.6 nM

c1ccc(CNc2nc(-c3cccnc3)nc3ccccc23)cc1 [compound 51]
IC50 [5]: 7080 nM

c1cncc(-c2nc(NC3CCC3)c3ccccc3n2)c1 [Compound 7d]
IC50 [1, 6]: 2840 ± 340 nM

CCC1CCC(Nc2nc(-c3cccnc3)nc3ccccc23)CC1 (stereo not drawn) [Compound 6b]
IC50 [1, 8]: 126 ± 7 nM

CN(c1nc(-c2cccnc2)nc2ccccc12)C1CCc2ccccc2C1 (stereo not drawn) [compound 75]
IC50 [5]: 1580 nM

c1ccc(CCCNc2nc(-c3cccnc3)nc3ccccc23)cc1 [compound 52]
IC50 [5]: 1780 nM

c1cncc(-c2nc(NC3CCCCCCC3)c3ccccc3n2)c1 [Compound 7a]
IC50 [1, 6]: 27 ± 2 nM

CN(CCOc1ccccc1)c1nc(-c2cccc(F)c2)nc2ccccc12 [compound 132]
Activity AC50 or IC50 ([5]; direction not given): Inactive

c1cncc(CCNc2nc(-c3cccnc3)nc3ccccc23)c1 [compound 70]
IC50 [5]: 5010 nM

c1cncc(-c2nc(N3CCc4[nH]c5ccccc5c4C3)c3ccccc3n2)c1 [compound 93]
AC50 ([5]; marked activator, AC50, read-out: Activity AC50 or IC50 (activator)): 6310 nM

c1cncc(CCNc2nc(-c3cccnc3)nc3ccccc23)c1 [Compound 8g]
IC50 [1, 9]: 4290 ± 570 nM

CN(CCCCCCCCCCN(C)c1nc(-c2cccnc2)nc2ccccc12)c1nc(-c2cccnc2)nc2ccccc12 [compound 112]
Activity AC50 or IC50 (activator) [5]: Weak activator

c1cncc(-c2nc(NC34CC5CC(CC(C5)C3)C4)c3ccccc3n2)c1 [compound 79]
IC50 [5]: 1120 nM

CC1(C)CCC(Nc2nc(-c3cccnc3)nc3ccccc23)CC1 [compound 85]
IC50 [5]: 460 nM

FC1(F)CCC(Nc2nc(-c3cccnc3)nc3ccccc23)CC1 [compound 65]
IC50 [5]: 316 nM

c1cncc(-c2nc(NC3CCC3)c3ccccc3n2)c1 [compound 43]
IC50 [5]: 4470 nM
